Patent US8784898B2, “Methods of wound care and treatment” (Revalesio Corporation, priority 2006, dated 2014)

System: Methicillin-Resistant Staphylococcus Aureus (MRSA)
Experiment: MRSA bacteriocidal effects in combination with oxacillin
Assay type: cell-based
Set-up: concentration or dose not given beside the values

Measured: Percentage of plates with no growth

Cc1onc(-c2ccccc2)c1C(=O)N[C@@H]1C(=O)N2[C@@H]1SC(C)(C)[C@@H]2C(=O)O [Drug, oxacillin]
0.00%: 30 min | 120 min | 240 min | 480 min | 1080 min | 1440 min
16.67%: 0 min
